Structures are written as SMILES.

Here are results for one compound from article PMC8934569 (Cancer chemotherapy and pharmacology, 2021).

Data set [1] in a line: Drug-related adverse events graded by NCI CTCAE version 4.0. The data set is classed as in vivo, human. To be noted: overall, 80 patients enrolled; given with veliparib.
For data set [2] the following is noted: cyclophosphamide iv at 450 mg/m^2 and 750 mg/m^2.
The subject of data set [3] is MX-1 BRCA1 deficient breast cancer model. To be noted: in vivo; cited from earlier work.
Data set [4] has as its system metastatic breast cancer. The following applies: with veliparib 200 mg BID in 21-day cycles; cited from earlier work.

Turning to `O=P1(N(CCCl)CCCl)NCCCO1` (stereo not shown) [cyclophosphamide], the “Patients with a dose reduction of cyclophosphamide” value in data set [1] stood at 3 patients. Further, in data set [2], the “Effect of oral veliparib on cyclophosphamide PK” value is listed as “not influenced by veliparib”. In addition, the “Tumor effect of single agent” value in data set [3] was “only delayed tumor growth slightly”. Moreover, the “Recommended phase II dose of cyclophosphamide” value in data set [4] is 125 mg po daily.
